# Results from paper PMC6273089, “Secondary Metabolites Produced by an Endophytic Fungus Pestalotiopsis sydowiana and Their 20S Proteasome Inhibitory Activities” (Molecules, 2016).
# Biological target: human erythrocyte 20S proteasome (Homo sapiens, UniProt P28074)
# Assay: 20S proteasome inhibition assay (chymotrypsin-like activity, Suc-LLVY-AMC substrate)
# Conditions: not given
row,Compound,IC50
1,"CCC(O)C[C@H](O)C1CC(OC)=CC(=O)O1 (some centres unmarked) [Compound 10, photipyrone B]",7.9 ± 1.8 µM
2,"C/C=C(/C)c1cc(OC)cc(=O)o1 [Compound 8, pestalotiopyrone G]",1.2 ± 0.3 µM
3,"COc1c(/C=C/C(C)(C)OC)ccc2c1C(=O)OCc1cc(C)cc(O)c1O2 [Compound 1, 3′-O-methyldehydroisopenicillide]",30.5 ± 1.5 µM
4,"COc1cc(C(C)(O)C(C)O)oc(=O)c1 (centres unmarked) [Compound 6, pestalotiopyrone D]",> 100 µM
5,"COc1cc(C(C)C(C)O)oc(=O)c1 (centres unmarked) [Compound 7, pestalotiopyrone E]",> 100 µM
6,"C=C(C)[C@@H](O)[C@@H](O)c1ccc2c(c1OC)C(=O)OCc1cc(C)cc(O)c1O2 [Compound 3, pestalotiollide A]",12.4 ± 1.1 µM
7,"CCC[C@@H](O)[C@H](O)C1CC(OC)=CC(=O)O1 (some centres unmarked) [Compound 9, LL-P880b]",8.9 ± 1.5 µM
8,"COc1c(/C=C/C(C)(C)O)ccc2c1C(=O)OCc1cc(C)cc(O)c1O2 [Compound 4, dehydroisopenicillide]",> 100 µM
9,"C=C(C)[C@@H](O)[C@H](O)c1ccc2c(c1OC)C(=O)OCc1cc(C)cc(O)c1O2 [Compound 2, pestalotiollide B]",18.5 ± 4.2 µM
10,"COC1=CC(=O)OC(CO)C1 (centres unmarked) [Compound 5, 6-hydroxymethyl-4-methoxy-5,6-dihydro-2H-pyran-2-one]",20.5 ± 2.3 µM

# Same assay, conditions: chymotrypsin-like activity
row,Compound,20S proteasome inhibitory activity (in words)
1,"C/C=C(/C)c1cc(OC)cc(=O)o1 [Compound 8, pestalotiopyrone G]",strong activity
